Like-named read-outs stand apart in the source and are kept apart here.
What was measured:
Type in all cases: cell-based
human TLR2 [1] = molecular target: T1, human TLR2 (Homo sapiens, UniProt O60603); experiment: HEK-Blue hTLR2 antagonism assay (SEAP reporter) with agonist Pam3CSK4 (TLR1/2 agonist); conditions: HEK-Blue hTLR2 cells, ~3×EC50 Pam3CSK4, 18 h, SEAP OD 655 nm, 8-point dilutions
T1 construct: host or cells: HEK-Blue hTLR2 (HEK-293)

human TLR9 = molecular target: T2, human TLR9 (Homo sapiens, UniProt Q9NR96); experiment: HEK-Blue hTLR9 assay (SEAP reporter) with agonist ODN 2006; conditions: HEK-Blue hTLR9 cells, ~3×EC50 ODN 2006, 18 h, exact values 8-point dilutions, approximate (~ or <) 4-point dilutions, read-out: ~IC50 (μM) with ODN2006
T2 construct: host or cells: HEK-Blue hTLR9 (HEK-293)
T2 sequence (Q9NR96 26-1032): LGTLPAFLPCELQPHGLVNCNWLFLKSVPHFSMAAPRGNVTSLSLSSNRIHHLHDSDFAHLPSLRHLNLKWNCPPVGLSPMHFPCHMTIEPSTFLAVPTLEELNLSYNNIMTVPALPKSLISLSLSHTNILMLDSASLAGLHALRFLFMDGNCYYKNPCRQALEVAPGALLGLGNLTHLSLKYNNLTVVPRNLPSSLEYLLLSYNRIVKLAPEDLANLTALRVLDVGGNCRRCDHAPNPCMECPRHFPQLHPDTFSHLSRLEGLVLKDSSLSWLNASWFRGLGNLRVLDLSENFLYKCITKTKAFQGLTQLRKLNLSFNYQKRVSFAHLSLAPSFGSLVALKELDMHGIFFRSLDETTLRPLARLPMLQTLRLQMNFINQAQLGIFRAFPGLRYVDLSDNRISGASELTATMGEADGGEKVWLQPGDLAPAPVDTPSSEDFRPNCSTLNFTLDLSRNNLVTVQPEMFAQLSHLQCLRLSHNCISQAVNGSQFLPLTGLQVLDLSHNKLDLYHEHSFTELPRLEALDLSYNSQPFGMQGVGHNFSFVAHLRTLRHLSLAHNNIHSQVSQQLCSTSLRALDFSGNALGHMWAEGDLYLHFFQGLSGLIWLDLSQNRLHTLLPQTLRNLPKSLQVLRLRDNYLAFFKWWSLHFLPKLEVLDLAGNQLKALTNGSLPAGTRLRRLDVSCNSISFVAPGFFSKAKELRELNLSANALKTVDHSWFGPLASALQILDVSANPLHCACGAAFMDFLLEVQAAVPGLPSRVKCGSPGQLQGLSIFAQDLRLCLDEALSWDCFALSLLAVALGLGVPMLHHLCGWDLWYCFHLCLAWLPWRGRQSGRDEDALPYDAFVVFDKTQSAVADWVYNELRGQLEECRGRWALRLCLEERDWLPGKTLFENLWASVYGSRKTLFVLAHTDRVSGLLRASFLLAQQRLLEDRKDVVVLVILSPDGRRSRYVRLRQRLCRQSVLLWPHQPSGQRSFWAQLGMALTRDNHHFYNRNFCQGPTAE
Description: Synthetic ODNs (ODN 2006 (ODN7909), class B CpG oligonucleotide, TLR9 agonist) was obtained from InvivoGen and was dissolved in endotoxin-free water to a concentration 500 μM, vortexed until complete solubilization, and stored in aliquots at −20° C. Prior to addition to cells, an aliquot of the dissolved ligand was vortexed shortly and then was diluted in medium to 50 μM. The EC50 of the agonist for each assay run was determined by using 3-fold dilutions from the starting concentration 10 μM.
Test compounds were solubilized fresh to 10-20 mM stocks in DMSO and sonicated for 5-10 minutes in a water bath sonicator. Serial dilutions were prepared in DMSO, and then diluted in medium. The final concentration of DMSO used in the assay was 1%.
HEK-Blue hTLR9 reporter cells (InvivoGen) are HEK-293 cells stably expressing both the human TLR9 gene and a secreted embryonic alkaline phosphatase (SEAP) reporter construct downstream of NFκB promotor sites. HEK-Blue hTLR9 cells were cultured according to manufacturer's protocol using Dulbecco's Modified Eagle Medium (DMEM; Gibco) containing 1× GlutaMax (Gibco), 10% heat-inactivated Fetal Bovine Serum (Gibco), Pen-Strep (50 U/mL penicillin, 50 μg/mL streptomycin, Gibco), 100 μg/mL Normocin (InvivoGen), and the selective antibiotics, 10 μg/mL Blasticidin (InvivoGen), and 100 μg/mL Zeocin (InvivoGen). Quanti-Blue reagent (InvivoGen) for detection and quantification of secreted alkaline phosphatase was dissolved in 100 mL of endotoxin-free water, warmed to 37° C. for 30 minutes and then filtered using a 0.2 μm membrane.
On day 1, 50 μL of each test compound dilution in duplicates or a vehicle control was added to each well of a 96-well plate followed by addition of 150 μL of HEK-Blue hTLR9 cell suspension (1×10^5 cells/well) and incubated at 37° C./5% CO2 for 2 h. Next, 50 μL of an approximate 3×EC50 concentration of TLR9 agonist, ODN 2006, was added to the wells containing test compounds or the vehicle control. The plates were then incubated at 37° C./5% CO2 for 18 h. For each assay run, vehicle-treated HEK-Blue hTLR9 cells were treated with serial dilutions of agonist to determine EC50 values for the respective run.
On day 2, secreted alkaline phosphatase (SEAP) activity was detected in cell culture supernatants. In brief, 30 μL was collected from each well and transferred to a 96-well plate. Next, 200 μL of Quanti-Blue detection reagent was added to each well. Plates were incubated at 37° C. for 60 min. and SEAP activity was assessed by spectrophotometer OD reading at 655 nm. Table A and Table B show the activities of the compounds tested in HEK-Blue hTLR9 cells against ODN 2006. The activities of the compounds against ODN 2006 are presented as IC50 values which were defined as concentrations of the compounds where percent inhibition of the signal induced by agonist is equal to 50. Exact IC50 values were calculated based on 8-point dilutions for each compound. Approximate IC50 values (˜ or <) were calculated based on 4-point dilutions for each compound.

human TLR2 [2] = molecular target: T1, human TLR2; experiment: HEK-Blue hTLR2 antagonism assay (SEAP reporter) with agonist Pam2CSK4 (TLR2/6 agonist); conditions: HEK-Blue hTLR2 cells, ~3×EC50 Pam2CSK4, 18 h, SEAP OD 655 nm, 8-point dilutions

T1 sequence (O60603 21-784): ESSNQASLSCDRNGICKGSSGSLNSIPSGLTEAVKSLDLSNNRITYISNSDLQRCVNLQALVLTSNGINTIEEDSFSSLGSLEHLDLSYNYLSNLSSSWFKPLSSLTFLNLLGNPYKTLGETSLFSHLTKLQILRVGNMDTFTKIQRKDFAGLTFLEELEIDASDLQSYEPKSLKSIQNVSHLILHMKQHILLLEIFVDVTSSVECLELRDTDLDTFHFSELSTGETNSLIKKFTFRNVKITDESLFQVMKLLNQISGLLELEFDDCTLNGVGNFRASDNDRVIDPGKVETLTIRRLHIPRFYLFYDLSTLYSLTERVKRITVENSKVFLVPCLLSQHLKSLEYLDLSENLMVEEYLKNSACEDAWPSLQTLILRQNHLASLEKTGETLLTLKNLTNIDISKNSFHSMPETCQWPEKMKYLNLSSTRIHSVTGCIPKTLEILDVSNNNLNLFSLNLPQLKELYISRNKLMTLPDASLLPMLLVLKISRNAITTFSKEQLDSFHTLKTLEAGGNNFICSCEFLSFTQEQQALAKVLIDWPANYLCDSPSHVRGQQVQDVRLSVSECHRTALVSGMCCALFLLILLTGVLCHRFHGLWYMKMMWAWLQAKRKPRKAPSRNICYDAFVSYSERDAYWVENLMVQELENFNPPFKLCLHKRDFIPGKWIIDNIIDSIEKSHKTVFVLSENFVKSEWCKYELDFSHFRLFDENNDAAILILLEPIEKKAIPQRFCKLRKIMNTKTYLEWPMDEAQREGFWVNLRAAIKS

IC50 (human TLR2 [1]; Table A) [µM] | IC50 (human TLR9; Table A) [µM] | IC50 (human TLR2 [2]; Table A) [µM] | IC50 (human TLR2 [1]; Table B) [µM] | IC50 (human TLR9; Table B) [µM] | IC50 (human TLR2 [2]; Table B) [µM] | Compound
0.7 | < 1.2 | 1.7 | – | – | – | O=Cc1cc(-c2cc(-c3ccc(N4CCCC4)cc3)cs2)cc(F)c1O [Compound A51, 3-fluoro-2-hydroxy-5-(4-(4-(pyrrolidin-1-yl)phenyl)thiophen-2-yl)benzaldehyde]
0.3 | 0.3 | 1 | – | – | – | O=Cc1cc(-c2csc(-c3ccc(N4CCCC4)cc3)n2)cc(F)c1O [Compound A57, 3-fluoro-2-hydroxy-5-(2-(4-(pyrrolidin-1-yl)phenyl)thiazol-4-yl)benzaldehyde]
– | – | – | 3.7 | < 1.2 | 8.7 | O=Cc1cc(NC(=O)Nc2ccc(N3CCCC3)cc2)cc(F)c1O [Compound B65, 1-(3-fluoro-5-formyl-4-hydroxyphenyl)-3-(4-(pyrrolidin-1-yl)phenyl)urea]

Further lines, the compound ahead of its results:

Compound | IC50 (human TLR2 [1]; Table A) [µM] | IC50 (human TLR9; Table A) [µM] | IC50 (human TLR2 [2]; Table A) [µM] | IC50 (human TLR2 [1]; Table B) [µM] | IC50 (human TLR9; Table B) [µM] | IC50 (human TLR2 [2]; Table B) [µM]
Oc1cc(-c2cnn(-c3ccccc3)c2)cc(F)c1F [Compound A13, 2,3-difluoro-5-(1-phenyl-1H-pyrazol-4-yl)phenol] | 39.7 | > 33 | 45.7 | – | – | –
COc1cc(-c2cnn(CCN3CCOCC3)c2)cc(C=O)c1O [Compound A2, 2-hydroxy-3-methoxy-5-(1-(2-morpholinoethyl)-1H-pyrazol-4-yl)benzaldehyde] | > 100 | > 33 | > 100 | – | – | –
O=Cc1cc(-c2ccn(-c3ccc(N4CCCC4)cc3)n2)cc(F)c1O [Compound A27, 3-fluoro-2-hydroxy-5-(1-(4-(pyrrolidin-1-yl)phenyl)-1H-pyrazol-3-yl)benzaldehyde] | 0.8 | < 1.2 | 0.9 | – | – | –
O=Cc1cc(-c2cn(-c3ccc(N4CCCC4)cc3)cn2)cc(F)c1O [Compound A47, 3-fluoro-2-hydroxy-5-(1-(4-(pyrrolidin-1-yl)phenyl)-1H-imidazol-4-yl)benzaldehyde] | 1.3 | < 1.2 | 2.3 | – | – | –
